Here are results for one compound from EPA's ToxValDB 9.5 (doi:10.2903/j.efsa.2008.124r).

One series concerns Canidae. Conditions: chronic; duration: 1 years; oral; Dog Other; organ weight.
A further series has as its system Anas platyrhynchos. Conditions: acute; oral; unspecified; mortality.
In another series the test system is Apis mellifera. The following applies: acute, mortality.
The next series has as its system Folsomia candida. The following applies: chronic/long-term; duration: 28 days.
The test system of a further series is Tagia sp. The following applies: acute; duration: 14 days; mortality.
A further series deals with Lepomis macrochirus. Conditions: acute; duration: 96 hours; mortality.
Another series relates to Daphnia magna. The following applies: chronic/long-term; duration: 21 days; mortality.
Another series relates to Oncorhynchus mykiss. Conditions: chronic/long-term; duration: 21 days; mortality.
For a further series, the system named is Phasianus sp. Conditions: acute; oral; unspecified; mortality.
The next series concerns Bibionidae. Conditions: chronic/long-term; duration: 28 days; development.

Converted amounts (≈) assume the structure as drawn.

A word on the NOAEL: it is the highest tested level that showed no adverse finding. As to `CC(Cc1ccc(C(C)(C)C)cc1)CN1CCCCC1` (stereo unspecified) [Fenpropidin], the NOAEL with Canidae was found to be 2 mg/kg-day; with Colinus virginianus (reproduction developmental), 14.6 mg/kg-day; in the series on Rattus norvegicus (chronic, duration: 2 years, body weight), 2.27 mg/kg-day; with Rattus norvegicus (reproduction developmental), 60.2 mg/kg-day. In addition, the LD50 was 1900 mg/kg-day in the series on Anas platyrhynchos; 46 µg/piece in the series on Apis mellifera (dermal); greater than 10 µg/piece in the series with Apis mellifera (oral, unspecified); greater than 1420 mg/kg-day in the series on Colinus virginianus (acute, oral, diet, mortality); 1450 mg/kg-day in the series on Rattus norvegicus (acute, mortality); 369 mg/kg-day in the series with Phasianus sp.. The NOEC in the series on Folsomia candida worked out at 46.5 mg/kg; in the series with Daphnia magna it was 0.32 mg/L; in the series on Oncorhynchus mykiss, 0.32 mg/L; with Bibionidae, 1 mg/L. For the same compound, the LC50 in the series on Tagia sp. was greater than 500 mg/kg; in the series on Lepomis macrochirus it was 1.9 µg/mL (≈ 6.95 µM).
